From patent publication US6426355B1, “Heterocyclic carboxamide-containing thiourea inhibitors of herpes viruses containing phenylenediamine group” (American Home Products, priority 1998, dated 2002)
≈ marks a conversion by molar mass, not a printed value.

Key:
VZV strain Ellen = test: VZV Antiviral (ELISA) assay; type: cell-based; conditions: VZV strain Ellen in HFF cells
Experimental: For the generation of stock VZV to be used in the assay, VZV strain Ellen (ATCC #VR-1367) is used to infect human foreskin fibroblast (HFF) cells at low multiplicity (less than 0.1) and incubated overnight at 37° C. in 5% CO2. After the overnight incubation, the mixture of uninfected and VZV-infected HFF infected cells are then harvested and added to each well of 96-well plates (3.5×10^4 cells in 100 μl DMEM supplemented with 2% FBS) which contain test compound or the reference standard drug control (in 100 μl DMEM supplemented with 2% FBS per well). These cells are incubated for three days at 37° C. in 5% CO2, then fixed for ELISA assay. The primary antibody is murine anti-VZV glycoprotein II monoclonal antibody (Applied Biosystems, Inc. #13-145-100) and the secondary antibody is goat anti-mouse IgG linked to β-galactosidase. Thus the extent of viral replication is determined by assessing β-galactosidase activity by quantifying the generation of the 4-methyl umbelliferone fluorescent cleavage product after addition of the methyl umbelliferyl-β-D-galactoside (Sigma #M1633) substrate on a microfluorimeter (365 nm for excitation and 450 nm for emission). Antiviral activity (IC50) of the test compound is determined by comparing the flourescence obtained in absence of compound to that obtained in the presence of compound.

[1] = tested on: HCMV recombinant mutant virus (RV145); test: HCMV microtiter plate assay (beta-glucuronidase reporter); type: cell-based, Human Cytomegalovirus; conditions: HCMV in human foreskin fibroblasts
Excerpt: Ninety-six well plate cultures of human foreskin fibroblasts are infected in the presence of inhibitor compound with a HCMV recombinant mutant virus whose genome contains the prokaryotic beta-glucuronidase gene (Jefferson, R. A., S. M. Burgess, and D. Hirsh. 1986. Beta-glucuronidase from Escherichia coli as a gene fusion marker. Proc. Natl. Acad. Sci. USA 83:8447-8451) whose expression is controlled by a viral promoter. An example of such a virus is RV145 (Jones, T. R., V. P. Muzithras, and Y. Gluzman. 1991. Replacement mutagenesis of the human cytomegalovirus genome: US10 and US11 gene products are nonessential. J. Virol. 65:5860-5872). Since it is under the control of a viral promoter, beta-glucuronidase expression is an indirect indicator of growth and replication of HCMV in this assay. At 96 hours post-infection, the infected cell lysates are prepared (using 50 mM sodium phosphate [pH7.0] containing 0.1% Triton X-100 and 0.1% sarkosyl) and assayed for beta-glucuronidase activity using a substrate for the enzyme which when cleaved yields either a product which can be measured colorimetrically in a spectrophotometer or fluorescently in a microfluorimeter. Examples of such substrates are p-nitrophenyl-beta-D-glucuronide and methylumbelliferylglucuronide, respectively. The presence of an antiviral compound is indicated by the reduced expression of the HCMV genome resident beta-glucuronidase gene, compared to the absence of inhibitor. […] Data from this assay generated using varying amounts of inhibitor compound is also used to estimate the IC50 of an inhibitor compound.

SMILES | IC50 (ug/ml) VZV (VZV strain Ellen) [µg/mL] | IC50 (ug/ml) HCMV [1] [µg/mL]
CN(C)c1cc(NC(=S)Nc2ccc(NC(=O)c3csnn3)cc2)cc(C(F)(F)F)c1 [Example 571] | >10 | 0.013 (≈ 0.0279 µM)
O=C(Nc1ccc(NC(=S)NCc2cccc(Cl)c2)cc1)c1csnn1 [Example 572] | >10 | 0.0078 (≈ 0.0193 µM)
O=C(Nc1ccc(NC(=S)NCCc2cccc(F)c2)cc1)c1ccco1 [Example 573] | >10 | 0.05 (≈ 0.13 µM)
O=C(Nc1ccc(NC(=S)NCCc2ccccc2)cc1)c1ccco1 [Example 574] | >10 | 0.089 (≈ 0.244 µM)
O=C(Nc1ccc(NC(=S)NCCc2ccccc2)cc1)c1csnn1 [Example 575] | 2 (≈ 5.22 µM) | 0.017 (≈ 0.0443 µM)
O=C(Nc1ccc(NC(=S)NCc2cc(F)cc(F)c2)cc1)c1ccco1 [Example 579] | 6 (≈ 15.5 µM) | 0.05 (≈ 0.129 µM)
O=C(Nc1ccc(NC(=S)NCc2cc(F)cc(F)c2)cc1)c1csnn1 [Example 581] | >10 | 0.01 (≈ 0.0247 µM)
O=C(Nc1ccc(NC(=S)NCc2cc(Cl)cc(Cl)c2)cc1)c1ccco1 [Example 582] | 8 (≈ 19 µM) | 0.01 (≈ 0.0238 µM)
O=C(Nc1ccc(NC(=S)NCc2cc(Cl)cc(Cl)c2)cc1)c1csnn1 [Example 584] | >10 | 0.0026 (≈ 0.00593 µM)
O=C(Nc1ccc(NC(=S)NCc2cc(F)cc(C(F)(F)F)c2)cc1)c1ccco1 [Example 585] | >10 | 0.015 (≈ 0.0343 µM)
O=C(Nc1ccc(NC(=S)NCc2cc(F)cc(C(F)(F)F)c2)cc1)c1csnn1 [Example 587] | >10 | 0.005 (≈ 0.011 µM)
COc1ccc(CCNC(=S)Nc2ccc(NC(=O)c3ccco3)cc2)cc1OC [Example 611] | >10 | 0.5 (≈ 1.18 µM)
O=C(Nc1ccc(NC(=S)NCCCc2ccccc2)cc1)c1ccco1 [Example 612] | 1 (≈ 2.64 µM) | 0.049 (≈ 0.129 µM)
O=C(Nc1ccc(NC(=S)NCCCc2ccccc2)cc1)c1csnn1 [Example 613] | >10 | 0.011 (≈ 0.0277 µM)
O=C(Nc1ccc(NC(=S)NCCc2cc(C(F)(F)F)cc(C(F)(F)F)c2)cc1)c1ccco1 [Example 614] | 7 (≈ 14 µM) | 0.024 (≈ 0.0479 µM)
O=C(Nc1ccc(NC(=S)Nc2ccc(I)c(C(F)(F)F)c2)cc1)c1csnn1 [Example 615] | >10 | 0.005 (≈ 0.0091 µM)
CN1CCN(c2ccc(CNC(=S)Nc3ccc(NC(=O)c4csnn4)cc3)cc2C(F)(F)F)CC1 [Example 617] | >10 | 0.013 (≈ 0.0243 µM)
CN(C)c1cc(CNC(=S)Nc2ccc(NC(=O)c3csnn3)cc2)cc(C(F)(F)F)c1 [Example 618] | >10 | 0.0016 (≈ 0.00333 µM)
O=C(Nc1ccc(NC(=S)NCc2ccc(F)c(C(F)(F)F)c2)cc1)c1csnn1 [Example 624] | >10 | 0.002 (≈ 0.00439 µM)
O=C(Nc1ccc(NC(=S)NCc2ccccc2Cl)cc1)c1csnn1 [Example 729] |  | 0.02 (≈ 0.0495 µM)
O=C(Nc1ccc(NC(=S)NCc2ccccc2F)cc1)c1csnn1 [Example 730] |  | 0.033 (≈ 0.0852 µM)
O=C(Nc1ccc(NC(=S)NCc2cccc(F)c2)cc1)c1csnn1 [Example 732] |  | 0.022 (≈ 0.0568 µM)

SMILES | IC50 (ug/ml) VZV (VZV strain Ellen) [µg/mL] | IC50 (ug/ml) HCMV [1] [µg/mL]
O=C(Nc1ccc(NC(=S)NCCOc2ccccc2Cl)cc1)c1csnn1 [Example 733] |  | 0.018 (≈ 0.0415 µM)
O=C(Nc1ccc(NC(=S)NCCOc2ccccc2F)cc1)c1csnn1 [Example 735] |  | 0.022 (≈ 0.0527 µM)
O=C(Nc1ccc(NC(=S)NCCOc2cccc(F)c2)cc1)c1csnn1 [Example 736] |  | 0.012 (≈ 0.0287 µM)
O=C(Nc1ccc(NC(=S)Nc2ccc(F)cc2)cc1)c1csnn1 [Example 740] |  | 0.1 (≈ 0.268 µM)
C[C@H](NC(=S)Nc1ccc(NC(=O)c2csnn2)cc1)c1ccc(Br)cc1 [Example 815] | 0.27 (≈ 0.584 µM) | 0.0095 (≈ 0.0205 µM)
C[C@@H](NC(=S)Nc1ccc(NC(=O)c2csnn2)cc1)c1ccc(Br)cc1 [Example 816] | >7.5 | 0.0053 (≈ 0.0115 µM)
CC(NC(=S)Nc1ccc(NC(=O)c2csnn2)cc1)c1cc(C(F)(F)F)cc(C(F)(F)F)c1 (stereo not drawn) [Example 818] | >7.5 | 0.0016 (≈ 0.00308 µM)
C[C@H](NC(=S)Nc1ccc(NC(=O)c2csnn2)cc1)c1ccc(Cl)cc1 [Example 820] | >7.5 | 0.006 (≈ 0.0144 µM)
C[C@@H](NC(=S)Nc1ccc(NC(=O)c2csnn2)cc1)c1ccc(Cl)cc1 [Example 821] | >7.5 | 0.005 (≈ 0.012 µM)
CC(NC(=S)Nc1ccc(NC(=O)c2csnn2)cc1)c1ccc(C#N)cc1 (stereo not drawn) [Example 822] | >7.5 | 0.018 (≈ 0.0441 µM)
CC(NC(=S)Nc1ccc(NC(=O)c2cscn2)cc1)c1ccc(Br)cc1 (stereo not drawn) [Example 824] | 0.17 (≈ 0.368 µM) | 0.014 (≈ 0.0303 µM)
C[C@H](NC(=S)Nc1ccc(NC(=O)c2csnn2)cc1)c1cc(C(F)(F)F)cc(C(F)(F)F)c1 [Example 825] | >7.5 | 0.0013 (≈ 0.0025 µM)
CC(NC(=S)Nc1ccc(NC(=O)c2csnn2)cc1)c1ccc(F)c(C(F)(F)F)c1 (stereo not drawn) [Example 828] | >7.5 | 0.002 (≈ 0.00426 µM)
CC(NC(=S)Nc1ccc(NC(=O)c2cscn2)cc1)c1cc(F)cc(C(F)(F)F)c1 (stereo not drawn) [Example 831] | >7.5 | 0.0011 (≈ 0.00235 µM)
CC(NC(=S)Nc1ccc(NC(=O)c2cscn2)cc1)c1ccc(C(F)(F)F)cc1F (stereo not drawn) [Example 832] | >7.5 | 0.001 (≈ 0.00213 µM)
CC(NC(=S)Nc1ccc(NC(=O)c2cscn2)cc1)c1cc(C(F)(F)F)ccc1F (stereo not drawn) [Example 833] | >7.5 | 0.0019 (≈ 0.00406 µM)
Cc1ccc(C(C)NC(=S)Nc2ccc(NC(=O)c3cscn3)cc2)c(C)c1 (stereo not drawn) [Example 834] | >7.5 | 0.002 (≈ 0.00487 µM)
CC(NC(=S)Nc1ccc(NC(=O)c2cscn2)cc1)c1ccc(Cl)cc1Cl (stereo not drawn) [Example 836] | >7.5 | 0.004 (≈ 0.00886 µM)
Cc1cccc(C(C)NC(=S)Nc2ccc(NC(=O)c3cscn3)cc2)c1 (stereo not drawn) [Example 837] | 3.60 (≈ 9.08 µM) | 0.03 (≈ 0.0757 µM)
CC(NC(=S)Nc1ccc(NC(=O)c2cscn2)cc1)c1ccc(F)cc1Br (stereo not drawn) [Example 854] |  | 0.02 (≈ 0.0417 µM)
CC(NC(=S)Nc1ccc(NC(=O)c2cscn2)cc1)c1ccc(Br)c(Br)c1 (stereo not drawn) [Example 855] |  | 0.02 (≈ 0.037 µM)
CC(NC(=S)Nc1ccc(NC(=O)c2cscn2)cc1)c1ccc(F)c(Cl)c1 (stereo not drawn) [Example 856] |  | 0.02 (≈ 0.046 µM)
